Data on 8 compounds can be found in ChEMBL document CHEMBL1157784, “Antitumor activity and COMPARE analysis of bis-indole derivatives” (Bioorg Med Chem, 2010).

Each structure is given as a SMILES string. pIC50: −log10 of the molar value. Calls of active or inactive are those of the source. No cut-off for these calls is given here.

Data set [1] is described as follows: Growth inhibition of human renal cancer cell by NCI-CLS assay. Type of data set: functional. The conditions noted are these: Cancer cell lines; for CC50: read-out: LC50 (the source's name).
The nature of data set [2]: Growth inhibition of human breast cancer cell by NCI-CLS assay. The format is functional. The conditions noted are these: Cancer cell lines; for CC50: read-out: LC50 (the source's name).
A further data set relates to NSCLC. The data set is described as follows: Growth inhibition of human NSCLC cell by NCI-CLS assay. Type of data set: functional.
Data set [3] in a line: Antiproliferative activity against human M07e cells after 2 days by MTT assay. Conditions: M-07e, 48 h. Type of data set: functional, cell-based.
Data set [4] in a line: Growth inhibition of human colon cancer cell by NCI-CLS assay. The format is functional. Conditions: Cancer cell lines.
Data set [5] is described as follows: Growth inhibition of human ovarian cancer cell by NCI-CLS assay. The format is functional. The conditions noted are these: Cancer cell lines; for CC50: read-out: LC50 (the source's name).
Data set [6] in a line: Acute toxicity in athymic nude Swiss mouse administered as single dose. Conditions: in vivo. Type of data set: organism-based.
Data set [7] can be described thus: Growth inhibition of human melanoma cell by NCI-CLS assay. The format is functional. Conditions: for CC50: read-out: LC50 (the source's name).
Data set [8] can be described thus: Antiproliferative activity against human B1647 cells after 2 days by MTT assay. The format is functional, cell-based. Conditions: B1647, 48 h.
Data set [9] addresses NAD(P)H dehydrogenase [quinone] 1 (Homo sapiens) (UniProt P15559). The data set is described as follows: Induction of NQO1 activity in HUVEC at 5 uM after 24 to 48 hrs by fluorescence plate reader.
The nature of data set [10]: Growth inhibition of human leukemia cell by NCI-CLS assay. Type of data set: functional.
Data set [11] can be described thus: Growth inhibition of human CNS cancer cell by NCI-CLS assay. Conditions: Cancer cell lines; for CC50: read-out: LC50 (the source's name). The format is functional.
Data set [12] is described as follows: Growth inhibition of human prostate cancer cell by NCI-CLS assay. The conditions noted are these: Cancer cell lines; for CC50: read-out: LC50 (the source's name). The format is functional.
A further data set deals with HUVEC. The data set is described as follows: Cytotoxicity against HUVEC after 2 days by MTT assay. Type of data set: cell-based. The conditions noted are these: Homo sapiens, 48 h.
In another data set the test system is HEL. The data set is described as follows: Antiproliferative activity against human HEL cells after 2 days by MTT assay. The format is functional, cell-based. The conditions noted are these: 48 h.

NAD(P)H dehydrogenase [quinone] 1 (Homo sapiens), sequence (P15559 whole entry): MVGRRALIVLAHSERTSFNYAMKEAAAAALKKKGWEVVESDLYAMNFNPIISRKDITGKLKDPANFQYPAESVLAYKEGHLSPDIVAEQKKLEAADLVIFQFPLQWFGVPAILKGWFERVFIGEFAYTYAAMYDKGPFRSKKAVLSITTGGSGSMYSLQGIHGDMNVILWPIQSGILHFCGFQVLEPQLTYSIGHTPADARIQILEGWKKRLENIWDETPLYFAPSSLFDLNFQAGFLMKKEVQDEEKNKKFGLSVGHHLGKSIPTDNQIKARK

`COc1cc2c(c(OC)c1OC)/C(=C\c1cccc(/C=C3/C(=O)Nc4cc(OC)c(OC)c(OC)c43)n1)C(=O)N2`: the GI50 in data set [1] amounted to 0.3 µM; in data set [2], 0.2 µM; with NSCLC, 0.3 µM; in data set [4], 0.2 µM; in data set [5], 0.3 µM; in data set [7], 0.2 µM. Moreover, the figures for the GI50 in data set [10], in [11] and in [12] were 0.2 µM, 0.3 µM and 0.3 µM, respectively. Moreover, the TGI in data set [1] stood at 0.7 µM; in data set [2] it was 1.5 µM; with NSCLC it was 1.5 µM; in [4], 0.5 µM; in [5], 0.8 µM; in data set [7] it was 0.5 µM. The concentration for total growth inhibition (TGI) in data set [10] amounted to 2.8 µM; in data set [11], 0.8 µM; in data set [12] it was 1 µM. Further, the CC50 in data set [1] was 4.5 µM; in data set [2], 24.6 µM; in [5], 5.7 µM; in data set [7], 2.7 µM; in [11], 3.2 µM; in data set [12] it was 16.6 µM. For the same compound, the LC50 came to 33.1 µM in the data set on NSCLC, 7.2 µM in data set [4] and 67.6 µM in data set [10]. Besides, the pIC50 in [3] is 6.00; in data set [8], 6.00; in the data set on HUVEC, over 5.30; with HEL, 6.00. The same compound returned an MTD in data set [6] of 100 mg/kg. Besides, the outcome in data set [9] was Active.

Consider `C[S+]([O-])CCCCN=C=S` (centres undefined), for which the result in data set [9] was Active.

Take `O=C1Nc2cc(OC(F)(F)F)ccc2/C1=C\c1cccc(/C=C2/C(=O)Nc3cc(OC(F)(F)F)ccc32)n1`: the GI50 in data set [1] is 0.3 µM; in [2] it was 0.3 µM; with NSCLC, 0.4 µM; in data set [4] it was 0.2 µM; in [5] it was 0.4 µM; in [7], 0.4 µM. Further, the GI50 in data set [10] is 0.2 µM; in data set [11] it was 0.3 µM; in [12] it was 0.1 µM. Moreover, the TGI is 0.7 µM in data set [1]; 2 µM in data set [2]; 1.9 µM in the data set on NSCLC; 0.5 µM in data set [4]; 2.5 µM in data set [5]; 1.1 µM in data set [7]. The TGI was determined as 8.9 µM in [10], 0.8 µM in [11] and 0.3 µM in data set [12]. Also, the CC50 in data set [1] turned out to be 2.9 µM; in data set [2] it was 15.8 µM; in [5] it was 12.3 µM; in data set [7] it was 5.7 µM; in data set [11], 2.6 µM; in [12], 3.2 µM. Further, the LC50 is 15.5 µM with NSCLC and 2 µM in data set [4]. Further, the pIC50 in data set [3] is 5.52; in [8], 5.52; in the data set on HUVEC it was over 5.30; in the data set on HEL, 5.52. Besides, the result in data set [9] was Active.

`COc1ccc2c(c1)/C(=C\c1ccc3ccc4ccc(/C=C5/C(=O)Nc6ccc(OC)cc65)nc4c3n1)C(=O)N2`: the GI50 is 3.3 µM in [1]; 3.9 µM in [2]; 3.2 µM in the data set on NSCLC; 2.8 µM in [4]; 5.5 µM in data set [5]; 3.2 µM in data set [7]. In addition, the GI50 came to 3 µM in data set [10], 3.8 µM in data set [11] and 3.7 µM in data set [12]. The TGI in data set [1] was found to be 19.5 µM; in [2], 75.9 µM; with NSCLC it was 28.2 µM; in data set [4], 16.2 µM; in data set [5], 58.9 µM; in data set [7], 11.5 µM. The TGI in [10] worked out at 60.3 µM; in data set [12] it was 36.3 µM. Further, the CC50 in data set [1] stood at 97.7 µM; in data set [7] it was 74.1 µM. Further, the LC50 with NSCLC came to 75.9 µM.

Consider `O=C1Nc2cccc(Cl)c2/C1=C\c1cccc(/C=C2/C(=O)Nc3cccc(Cl)c32)c1`, for which the GI50 turned out to be 2.3 µM in [1]; 2.4 µM in [2]; 4.2 µM with NSCLC; 2.6 µM in [4]; 2.7 µM in data set [5]; 3.2 µM in data set [7]. The GI50 in [10] came out at 1.3 µM; in [11], 1.7 µM; in data set [12] it was 1.5 µM. Besides, the TGI in data set [1] was 9.3 µM; in [2], 13.2 µM; in the data set on NSCLC it was 20.4 µM; in data set [4] it was 14.8 µM; in data set [5], 14.4 µM; in [7], 16.6 µM. For the same compound, the TGI came to 9.8 µM in data set [10], 13.5 µM in data set [11] and 16.2 µM in [12]. In addition, the CC50 in data set [1] worked out at 36.3 µM; in data set [2], 42.7 µM; in data set [5], 41.7 µM; in [7] it was 34.7 µM; in data set [11] it was 38.9 µM; in data set [12], 50.1 µM. For the same compound, the LC50 in the data set on NSCLC stood at 42.7 µM; in [4], 33.1 µM; in data set [10], 27.5 µM.

With `COc1ccc2c(c1)/C(=C\c1cccc(/C=C3/C(=O)Nc4ccc(OC)cc43)c1)C(=O)N2`, the GI50 came to 2.5 µM in data set [1]; 1.2 µM in data set [2]; 3 µM in the data set on NSCLC; 1.7 µM in [4]; 2.1 µM in data set [5]; 1.2 µM in [7]. Besides, the GI50 in data set [10] came out at 1 µM; in [11] it was 1.4 µM; in data set [12], 1.7 µM. Moreover, the TGI in data set [1] was found to be 6.2 µM; in [2] it was 5 µM; with NSCLC, 11 µM; in [4], 7.4 µM; in data set [5], 6.3 µM; in data set [7], 2.9 µM. For the same compound, the TGI in data set [10] was 11.5 µM; in data set [11], 4.3 µM; in data set [12], 4.1 µM. Besides, the CC50 stood at 79.4 µM in [1]; 95.5 µM in data set [5]; 30.2 µM in [7]; 29.5 µM in data set [11]; 25.7 µM in data set [12]. The LC50 was 85.1 µM with NSCLC and 83.2 µM in [4].

Turning to `CC(C)(C)c1cc(/C=C2/C(=O)Nc3cccc(Cl)c32)c(O)c(/C=C2/C(=O)Nc3cccc(Cl)c32)c1`, the GI50 turned out to be 3.6 µM in data set [1]; 2.4 µM in data set [2]; 3.5 µM with NSCLC; 2.2 µM in [4]; 2.2 µM in data set [5]; 2.9 µM in data set [7]. The GI50 was 2.8 µM in data set [10], 2.3 µM in data set [11] and 2.2 µM in [12]. Also, the TGI in data set [1] was found to be 15.8 µM; in data set [2], 11.5 µM; in the data set on NSCLC, 15.1 µM; in data set [4], 6.2 µM; in data set [5], 15.8 µM; in data set [7], 9.3 µM. Moreover, the TGI in [10] was 46.8 µM; in data set [11], 11 µM; in [12], 10.2 µM. For the same compound, the CC50 in data set [1] stood at 56.2 µM; in data set [2] it was 67.6 µM; in data set [5], 44.7 µM; in [7], 36.3 µM; in data set [11], 58.9 µM; in [12], 72.4 µM. The LC50 was determined as 64.6 µM in the data set on NSCLC and 21.9 µM in data set [4].

In the case of `COc1ccc2c(c1)/C(=C\c1cc(C(C)(C)C)cc(/C=C3/C(=O)Nc4ccc(OC)cc43)c1O)C(=O)N2`, the GI50 stood at 7.2 µM in [1]; 5.5 µM in data set [2]; 8.7 µM in the data set on NSCLC; 6.3 µM in [4]; 5.9 µM in [5]; 4.4 µM in [7]. The GI50 in data set [10] is 3.9 µM; in [11], 4.8 µM; in [12], 4.8 µM. The TGI stood at 22.4 µM in data set [1]; 31.6 µM in data set [2]; 32.4 µM in the data set with NSCLC; 19.9 µM in data set [4]; 25.1 µM in data set [5]; 13.2 µM in [7]. The TGI turned out to be 43.6 µM in [10], 21.4 µM in [11] and 24.5 µM in data set [12]. Also, the CC50 in data set [1] was determined as 61.7 µM; in data set [2], 63.1 µM; in data set [5], 61.7 µM; in data set [7], 39.8 µM; in data set [11] it was 66.1 µM; in data set [12] it was 72.4 µM. Further, the LC50 was determined as 69.2 µM in the data set with NSCLC and 53.7 µM in data set [4].
